Several values for one entry are separate records, joined by “and”; a condition that tells them apart may be missing. Equal values may be shown once.
Legend:
[1] = tested on: Parkinson's disease symptoms in PD patients with LID; test: Unified Parkinson's Disease Rating Scale (UPDRS), Phase 2a study; conditions: for UPDRS Part 3, Baseline / UPDRS Part 3, Δ / UPDRS Total, Baseline / UPDRS Total, Δ: on NLX-112
Description: Because the level of dyskinesia experienced by patients can vary over time, they were given 150% (i.e., 1.5×) of their regular L-DOPA dose (up to a maximum of 250 mg) as a challenge 30 min before each dyskinesia assessment to improve comparability between patients and between visits. […] PD symptoms were assessed by Unified Parkinson's Disease Rating Scale (UPDRS) 30-90 min after the 150% L-DOPA challenge (i.e., when the patient was ON). Changes from baseline are shown for total score (i.e., Parts 1 to 4) and individual scores for each Part, 1, 2, 3 and 4.
Patients were challenged with 150% of their standard L-DOPA dose (maximum L-DOPA dose 250 mg) 30 minutes prior to the first UDysRS assessment. • Change from baseline in UDysRS total score at Day 28 and Day 42, after a 150% L-DOPA dose challenge. • Change from baseline in total objective score (Parts III, IV) of the UDysRS at Day 28 and Day 42, after a 150% L-DOPA dose challenge. • Change from baseline in ON Time Without Troublesome Dyskinesia (ON Without Dyskinesia plus ON With Non-troublesome Dyskinesia) based on a PD Home Dyskinesia Diary. • Change from baseline in Unified Parkinson's Disease Rating Scale (UPDRS) scores (Part III, motor examination). • Change from baseline in UPDRS combined scores (Parts I, II, III and IV). • Clinical Global Impression of Change (CGI-C) in overall PD symptoms • Change from baseline in dyskinesia scores measured by the Kinesia 360 (Great Lakes Neurotechnologies, Inc) wearable dyskinesia assessment system.
The UPDRS consists of 4 parts: • Part I assesses non-motor experiences of daily living, such as cognitive impairment and depressed mood. • Part II assesses motor experiences of daily living, such as speech and eating tasks. • Part III is a motor examination conducted by the clinician, including assessments of symptoms such as rigidity and tremor. • Part IV is an assessment of motor complications, such as time spent with dyskinesia and functional impact of dyskinesias.
Each item in the UPDRS is scored from 0 to 4, and the individual scores are summed to give a total score that indicates the severity of the disease, with a score of 0 indicating no disability and a score of 199 being the most severe (indicating total disability).
Change from baseline in UPDRS combined scores (Parts I, II, III and IV) to Visit 6 (Day 28) and Visit 7 (Day 42) respectively would be summarized using descriptive statistics. […] The same analysis would be done for UPDRS Part III only.

[2] = in vivo; cited from earlier work
[3] = tested on: sleepiness in PD patients with LID; test: Epworth Sleepiness Scale (ESS), Phase 2a study; type: in vivo, human
Excerpt: The ESS is a self-administered questionnaire with 8 questions. Respondents are asked to rate, on a 4-point scale (0-3), their usual chances of dozing off or falling asleep while engaged in 8 different activities. The ESS score (the sum of 8 item scores, 0-3) can range from 0 to 24. Ratings are based on the previous month, or in the case of this study, the intervening period since the previous clinic visit (about 3 weeks).

[4] = Baseline, mean (SD), per-protocol set n = 15
[5] = Day 28, mean (SD), per-protocol set n = 15
[6] = Day 42, mean (SD), per-protocol set n = 15
[7] = Patient A, amantadine treatment 1 year
[8] = Patient B, amantadine treatment 2 years
[9] = Patient C, amantadine treatment 7 years
[10] = Patient D, amantadine treatment 11 years
[11] = Patient E, amantadine treatment 6 years
[12] = Visit 2 Baseline, Per protocol analysis set, n 15
[13] = Visit 6 Clinic Efficacy Visit (Day 28), Per protocol analysis set, n 15
[14] = Visit 6 Clinic Efficacy Visit, Full analysis set, n=15
[15] = Visit 7 Clinic Efficacy Visit (Day 42), Per protocol analysis set, n 15
[16] = Visit 7 Clinic Efficacy Visit, Full analysis set, n=15
[17] = Visit 9 Follow-up Clinic Visit, Full analysis set, n=15
[18] = Visit 9 Follow-up Clinic Visit, Per protocol analysis set, n 15

Cc1ccc(CNCC2(F)CCN(C(=O)c3ccc(F)c(Cl)c3)CC2)nc1 [NLX-112]
UPDRS Part 1 [1, 4]: 1.0 (1.0)
UPDRS Part 4 [1, 4]: 8.0 (2.0)
UPDRS Part 3, change from baseline [1, 5]: −3.7 points and −3.7 (4.7)**# points
UPDRS Total (Parts 1 to 4), change from baseline [1, 5]: −6.5 points and −6.5 (7.6)*** points
UPDRS Part 3, change from baseline [1, 6]: −3.7 points and −3.7 (4.6)** points
UPDRS Total (Parts 1 to 4), change from baseline [1, 6]: −5.7 points and −5.7 (6.0)** points
UPDRS Part 3, Baseline [1, 7]: 8
UPDRS Part 3, Δ [1, 7]: −4
UPDRS Total, Baseline [1, 7]: 22
UPDRS Total, Δ [1, 7]: −5
UPDRS Part 3, Baseline [1, 8]: 22
UPDRS Part 3, Δ [1, 8]: −9
UPDRS Total, Baseline [1, 8]: 44
UPDRS Total, Δ [1, 8]: −15
UPDRS Part 3, Baseline [1, 9]: 28
UPDRS Part 3, Δ [1, 9]: −13
UPDRS Total, Baseline [1, 9]: 51
UPDRS Total, Δ [1, 9]: −11
UPDRS Part 3, Baseline [1, 10]: 11
UPDRS Part 3, Δ [1, 10]: +3
UPDRS Total, Baseline [1, 10]: 26
UPDRS Total, Δ [1, 10]: −5
UPDRS Part 3, Baseline [1, 11]: 15
UPDRS Part 3, Δ [1, 11]: +2
UPDRS Total, Baseline [1, 11]: 30
UPDRS Total, Δ [1, 11]: +3
UPDRS Part 3 Motor Total, collected value, Median (Min, Max) ([1]; Visit 2 Baseline, Full analysis set, n=18): 16.0 (3, 39)
UPDRS Part 3 Motor Total, collected value, Median (Min, Max) [1, 12]: 17.0 (3, 39)
UPDRS Total Score, Collected value, Mean (SD) [1, 12]: 37.0 (13.3)
UPDRS Total Score, Collected value, Median (Min, Max) [1, 12]: 36.0 (17, 66)
UPDRS Part 3 Motor Total, absolute change from baseline, Mean (SD) [1, 13]: −3.7 (4.7)
UPDRS Part 3 Motor Total, absolute change from baseline, Median (Min, Max) [1, 13]: −4.0 (−12, 5)
UPDRS Part 3 Motor Total, collected value, Median (Min, Max) [1, 13]: 14.0 (2, 30)
UPDRS Total Score, Absolute change from baseline, Mean (SD) [1, 13]: −6.5 (7.6)
UPDRS Total Score, Absolute change from baseline, Median (Min, Max) [1, 13]: −5.0 (−23, 6)
UPDRS Total Score, Collected value, Median (Min, Max) [1, 13]: 29.0 (13, 54)
UPDRS Part 3 Motor Total, absolute change from baseline, Mean (SD) [1, 14]: −3.7 (4.7)
UPDRS Part 3 Motor Total, absolute change from baseline, Median (Min, Max) [1, 14]: −4.0 (−12, 5)
UPDRS Part 3 Motor Total, collected value, Median (Min, Max) [1, 14]: 14.0 (2, 30)
UPDRS Total Score (all Parts), absolute change from baseline, Mean (SD) [1, 14]: −6.5 (7.6)
UPDRS Total Score (all Parts), absolute change from baseline, Median (Min, Max) [1, 14]: −5.0 (−23, 6)
UPDRS Total Score (all Parts), collected value, Median (Min, Max) [1, 14]: 29.0 (13, 54)
UPDRS Part 3 Motor Total, absolute change from baseline, Mean (SD) [1, 15]: −3.7 (4.6)
UPDRS Part 3 Motor Total, absolute change from baseline, Median (Min, Max) [1, 15]: −4.0 (−13, 3)
UPDRS Part 3 Motor Total, collected value, Median (Min, Max) [1, 15]: 14.0 (1, 35)
UPDRS Total Score, Absolute change from baseline, Mean (SD) [1, 15]: −5.7 (6.0)
UPDRS Total Score, Absolute change from baseline, Median (Min, Max) [1, 15]: −5.0 (−15, 4)
UPDRS Total Score, Collected value, Median (Min, Max) [1, 15]: 30.0 (15, 63)
UPDRS Part 3 Motor Total, absolute change from baseline, Mean (SD) [1, 16]: −3.7 (4.6)
UPDRS Part 3 Motor Total, absolute change from baseline, Median (Min, Max) [1, 16]: −4.0 (−13, 3)
UPDRS Part 3 Motor Total, collected value, Median (Min, Max) [1, 16]: 14.0 (1, 35)
UPDRS Total Score (all Parts), absolute change from baseline, Mean (SD) [1, 16]: −5.7 (6.0)
UPDRS Total Score (all Parts), absolute change from baseline, Median (Min, Max) [1, 16]: −5.0 (−15, 4)
UPDRS Total Score (all Parts), collected value, Median (Min, Max) [1, 16]: 30.0 (15, 63)
UPDRS Part 3 Motor Total, absolute change from baseline, Mean (SD) [1, 17]: −2.7 (5.5)
UPDRS Part 3 Motor Total, absolute change from baseline, Median (Min, Max) [1, 17]: −2.0 (−15, 4)
UPDRS Part 3 Motor Total, collected value, Median (Min, Max) [1, 17]: 13.0 (2, 32)
UPDRS Total Score (all Parts), absolute change from baseline, Mean (SD) [1, 17]: −4.4 (9.0)
UPDRS Total Score (all Parts), absolute change from baseline, Median (Min, Max) [1, 17]: −3.0 (−20, 7)
UPDRS Total Score (all Parts), collected value, Median (Min, Max) [1, 17]: 31.0 (15, 56)
UPDRS Part 3 Motor Total, absolute change from baseline, Mean (SD) [1, 18]: −2.7 (5.5)
UPDRS Part 3 Motor Total, absolute change from baseline, Median (Min, Max) [1, 18]: −2.0 (−15, 4)
UPDRS Part 3 Motor Total, collected value, Median (Min, Max) [1, 18]: 13.0 (2, 32)
UPDRS Total Score, Absolute change from baseline, Mean (SD) [1, 18]: −4.4 (9.0)
UPDRS Total Score, Absolute change from baseline, Median (Min, Max) [1, 18]: −3.0 (−20, 7)
UPDRS Total Score, Collected value, Median (Min, Max) [1, 18]: 31.0 (15, 56)
Reduction in UPDRS Part 3 scores, more than placebo ([1]; day 42): 3.9 points
Amantadine co-treated NLX-112 patients with decreases in UPDRS total score and UPDRS Part 3 ([1]; five patients also receiving amantadine): three
Effect on the beneficial anti-parkinsonian effects of L-DOPA ([1]; in vivo): did not worsen, and actually enhanced, the beneficial effects of L-DOPA
Amantadine co-treated NLX-112 patients with numerical reductions in PD symptoms (UPDRS) ([1]; patients on NLX-112 and amantadine): 4 of the 5
Blood concentrations that could be associated with side effects, such as dizziness [2]: higher than 15 ng/ml
ESS, Baseline, mean (S.D.) ([3]; Baseline, Per Protocol Set, n = 15): 8.3 (5.2)
Sleepiness (ESS), effect ([3]; Days 28 or 42): no consistent statistically significant effect
ESS, Δ D28, mean (S.D.) ([3]; change from baseline at day 28 (end of up-titration period), Per Protocol Set, n = 15): −1.1 (3.3)
ESS, Δ D42, mean (S.D.) ([3]; change from baseline at day 42 (end of stable dosing period), Per Protocol Set, n = 15): −0.9 (3.4)
